{"source": "patent US20140271926A1", "about": "“METHODS OF USE OF GLUTAMINE SYNTHETASE INHIBITORS” (CALIFORNIA INSTITUTE OF TECHNOLOGY, priority 2013, published 2014)", "key": {"[1]": {"test_system": "glutamine synthetase (GS)", "assay": "Western blot of endogenous GS level in MM.1S cells", "format": "cell-based, human", "details": "for steady-state level of GS: MM.1S cells, 2 mM glutamine, FIG. 5", "protocol": "The consequences of IMiD-enhanced ubiquitylation of GS on endogenous GS levels and stability in MM.1S cells were evaluated. […] The IMiD-triggered decline in GS protein was not due to a reduction in the mRNA level of GS (FIGS. 5 and 6). If IMiDs were added immediately after changing the growth medium, the suppression of GS was more profound, with a maximal effect seen at 0.1 μM pomalidomide (4-amino-thalidomide) (FIG. 7). […] To determine if IMiDs were affecting the stability of GS, cycloheximide chase experiments were performed. As known in the art, GS is an unstable protein (FIG. 9). […] The lenalidomide-induced downregulation of GS was blocked by the proteasome inhibitor MG132 (FIG. 11). Additionally, the lenalidomide-induced downregulation of GS was blunted upon depletion of CRBN by shRNA (FIG. 12).\nWestern blot analysis. […] After washing twice with ice-cold PBS, the cells were lysed in RIPA buffer (50 mM Tris-HCl, 150 mM NaCl, 1% Triton X-100, 1% Sodium deoxycholate, 0.1% SDS, [pH 7.5]) supplemented with complete protease inhibitor (Roche). Whole-cell protein extracts were prepared and quantified by the Bradford method (Bio-Rad, Hercules, Calif.). Equal amounts of protein (20-80 μg/lane) were electrophoretically separated on SDS-PAGE and transferred to a PVDF membrane. The membranes were blotted with indicated antibodies. Anti-rabbit or anti-mouse antibodies conjugated to horseradish peroxidase (Vector Labs) were used as secondary antibodies, and the signal was detected using a Super Signal West Pico Substrate kit (Fisher Scientific)."}, "endogenous GS": {"test_system": "endogenous GS", "assay": "TUBE2 pull-down of ubiquitin conjugates, HEK293T cells", "format": "cell-based, human", "details": "3 hours, FIG. 4; for GS ubiquitin conjugates: lenalidomide 30 μM or MG132 10 μM", "protocol": "TUBE (Tandem Ubiquitin Binding Entities) Pull-down. […] The cells were lysed in immunoprecipitation buffer (10 mM Tris [pH 7.5], 150 mM NaCl, 1% Triton X-100) containing a protease inhibitor cocktail, MG132 and 10 mM N-ethylmaleimide (NEM, Sigma). Whole-cell protein extracts were incubated with 20 μl of TUBE2 agarose beads (Boston Biochem) for 2-4 hours with rotation at 4° C. Beads were washed 3-5 times with lysis buffer, and bound proteins were eluted in SDS sample buffer and subjected to Western blot analysis."}, "FlagGS": {"test_system": "FlagGS", "assay": "In vivo ubiquitylation assay of FlagGS in HEK293T cells", "format": "cell-based, human", "details": "MG132 10 μM 3 hours, FIG. 13A", "from_the_text": "As mentioned above, GS is moderately unstable even in the absence of IMiDs. Specifically, seven lysine residues of GS are modified with ubiquitin in proteasome-inhibited cells, and modification of five of these sites is reduced upon inhibition of CRL activity with the NEDD8 conjugation inhibitor MLN4924. (Kim et al., 2011, Mol Cell., 44:325 and Emanuele et al., 2011, Cell, 147:459, the entire contents of both of which are herein incorporated by reference.) As such, the idea that the constitutive ubiquitylation and degradation of GS may be dependent on CRL4^CRBN was tested. In co-transfection assays, ^HAubiquitin was incorporated into ^FlagGS as determined by immunoprecipitation of ^FlagGS followed by immunoblotting with anti-HA (FIG. 13A). Additionally, ubiquitin-modified ^FlagGS accumulated in cells in which the proteasome was inhibited with the proteasome inhibitor MG132, but was almost entirely absent upon depletion of endogenous CRBN (depletion of CRBN was confirmed by immunoblot; FIG. 13B). […]\nIn vivo ubiquitylation assay. […] IP washing steps were performed using IP lysis buffer supplemented with 0.5 M NaCl Immunoprecipitated proteins were resolved by SDS/PAGE and analyzed by immunoblotting."}, "GS": {"test_system": "GS", "details": "five of seven ubiquitin-modified lysine sites; proteasome-inhibited cells; cited from earlier work"}, "[2]": {"details": "clinical; cited from earlier work"}, "MM.1S cells": {"test_system": "MM.1S cells", "assay": "Immunoblot of apoptosis biomarkers (cleaved caspase-3, PARP) in MM.1S cells", "format": "cell-based, human", "details": "low concentrations of pomalidomide; 0.5 mM glutamine 72 hours; FIG. 26", "protocol": "Since the physiological concentration of glutamine in human plasma is 0.5 mM (not the 2 mM that is typically used in cell cultures), the impact of GS depletion on cells grown in 0.5 mM glutamine was evaluated. Cells transduced with GS shRNA-3 in 2 mM glutamine for 7 days and then the cells were shifted to 0.5 mM glutamine.\nIf IMiDs modulate the level of multiple proteins that are critical for proliferation of myeloma cells, then restoring any one protein would not be expected to allow proliferation in the presence of IMiDs. By contrast, it was reasoned that if degradation of GS contributes to the anti-myeloma effect of IMiDs, that reduction of GS levels by shRNA knockdown would enhance the effect of IMiDs at sub-saturating concentrations, resulting in enhanced efficacy. […]\nWestern blot analysis. […] Whole-cell protein extracts were prepared and quantified by the Bradford method (Bio-Rad, Hercules, Calif.). […] Anti-rabbit or anti-mouse antibodies conjugated to horseradish peroxidase (Vector Labs) were used as secondary antibodies, and the signal was detected using a Super Signal West Pico Substrate kit (Fisher Scientific)."}}, "note": "Residues, ends and D or L forms follow the SMILES beside them. *: point of attachment. Cbz = O=C(OCc1ccccc1)*", "data": [{"smiles": "Nc1ccc2c(c1)C(=O)N(C1CCC(=O)NC1=O)C2=O", "note": "(stereo not shown) [5-amino-thalidomide]", "values": [{"measurement": "effect on GS protein levels", "setting": "[1]; MM.1S, FIG. 7", "value": "no effect"}]}, {"smiles": "CC(C)C[C@@H](C=O)NC(=O)[C@H](CC(C)C)NC(=O)[C@H](CC(C)C)NC(=O)OCc1ccccc1", "note": "[MG132] (Cbz-Leu-Leu-Leu-aldehyde)", "values": [{"measurement": "lenalidomide-induced downregulation of GS in presence of proteasome inhibitor", "setting": "[1]; MM.1S, 0.5 μM MG132, 100 μM lenalidomide, FIG. 11", "value": "blocked"}, {"measurement": "GS ubiquitin conjugates", "setting": "endogenous GS", "value": "increase"}, {"measurement": "ubiquitin-modified FlagGS", "setting": "FlagGS", "value": "accumulated"}]}, {"smiles": "NS(=O)(=O)OC[C@@H]1C[C@@H](n2ccc3c(N[C@H]4CCc5ccccc54)ncnc32)C[C@@H]1O", "note": "[MLN4924]", "values": [{"measurement": "ubiquitin modification of GS lysine residues", "setting": "GS", "value": "reduced"}]}, {"smiles": "Nc1cccc2c1CN(C1CCC(=O)NC1=O)C2=O", "note": "(stereo not shown) [lenalidomide]", "values": [{"measurement": "Cmax", "setting": "[2]", "value": "~1500", "unit": "nM"}, {"measurement": "steady-state level of GS", "setting": "[1]; 24 hours", "value": "marked, dose-dependent reduction"}, {"measurement": "time to substantial reduction of GS", "setting": "[1]; MM.1S, 100 μM lenalidomide, FIG. 8", "value": "≤ 4", "unit": "h"}, {"measurement": "lenalidomide-induced downregulation of GS upon depletion of CRBN by shRNA", "setting": "[1]; MM.1S, 24 hours, FIG. 12", "value": "blunted"}, {"measurement": "total cellular pool of ubiquitin conjugates", "setting": "endogenous GS; 30 μM", "value": "essentially no effect"}, {"measurement": "GS ubiquitin conjugates", "setting": "endogenous GS", "value": "increase"}]}, {"smiles": "Nc1cccc2c1C(=O)N(C1CCC(=O)NC1=O)C2=O", "note": "(stereo not shown) [pomalidomide, 4-amino-thalidomide]", "values": [{"measurement": "PARP cleavage in GS-depleted cells", "setting": "MM.1S cells", "value": "further accentuated"}, {"measurement": "PARP cleavage in non-depleted cells", "setting": "MM.1S cells", "value": "no effect"}, {"measurement": "Cmax", "setting": "[2]", "value": "~275", "unit": "nM"}, {"measurement": "steady-state level of GS", "setting": "[1]; 24 hours", "value": "marked, dose-dependent reduction"}, {"measurement": "concentration giving maximal suppression of GS", "setting": "[1]; MM.1S, IMiDs added immediately after changing the growth medium, FIG. 7", "value": 0.1, "unit": "µM"}]}]}
